Source: PubChem BioAssay (NCI)
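Tested at 5 concentrations; 48 h exposure; 96-well plates; endpoints linearly interpolated, else capped at highest concentration. Definition used: TGI = concentration required for complete inhibition of growth.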

Tests used:
Assay in all cases: DTP human tumour cell line panel, 48 h
OVCAR-4 ovarian = test system: OVCAR-4 ovarian
NCI-H23 lung = test system: NCI-H23 lung
SK-OV-3 ovarian = test system: SK-OV-3 ovarian
NCI-H460 lung = test system: NCI-H460 lung
NCI/ADR-RES ovarian = test system: NCI/ADR-RES ovarian
K-562 leukemia = test system: K-562 leukemia
SK-MEL-5 melanoma = test system: SK-MEL-5 melanoma
KM12 colon = test system: KM12 colon
SW-620 colon = test system: SW-620 colon
U251 CNS = test system: U251 CNS
SF-295 CNS = test system: SF-295 CNS
BT-549 breast = test system: BT-549 breast
LOX IMVI melanoma = test system: LOX IMVI melanoma
786-0 renal = test system: 786-0 renal
MOLT-4 leukemia = test system: MOLT-4 leukemia
OVCAR-3 ovarian = test system: OVCAR-3 ovarian
CAKI-1 renal = test system: CAKI-1 renal
EKVX NSCLC = test system: EKVX NSCLC
MALME-3M melanoma = test system: MALME-3M melanoma
SF-539 CNS = test system: SF-539 CNS
RXF 393 renal = test system: RXF 393 renal
SN12C renal = test system: SN12C renal
CCRF-CEM leukemia = test system: CCRF-CEM leukemia
HOP-62 NSCLC = test system: HOP-62 NSCLC
HOP-92 NSCLC = test system: HOP-92 NSCLC
OVCAR-8 ovarian = test system: OVCAR-8 ovarian
SK-MEL-2 melanoma = test system: SK-MEL-2 melanoma
SR leukemia = test system: SR leukemia
PC-3 prostate = test system: PC-3 prostate
T-47D breast = test system: T-47D breast
UACC-257 melanoma = test system: UACC-257 melanoma
A498 renal = test system: A498 renal
UACC-62 melanoma = test system: UACC-62 melanoma
MCF7 breast = test system: MCF7 breast
SNB-75 CNS = test system: SNB-75 CNS
IGROV1 ovarian = test system: IGROV1 ovarian
ACHN renal = test system: ACHN renal
HCT-116 colon = test system: HCT-116 colon
SNB-19 CNS = test system: SNB-19 CNS
HCC-2998 colon = test system: HCC-2998 colon
UO-31 renal = test system: UO-31 renal
M14 melanoma = test system: M14 melanoma
OVCAR-5 ovarian = test system: OVCAR-5 ovarian
TK-10 renal = test system: TK-10 renal
HCT-15 colon = test system: HCT-15 colon
COLO 205 colon = test system: COLO 205 colon
HS 578T breast = test system: HS 578T breast
NCI-H522 lung = test system: NCI-H522 lung
A549 NSCLC = test system: A549 NSCLC
HT29 colon = test system: HT29 colon
DU-145 prostate = test system: DU-145 prostate
HL-60(TB) leukemia = test system: HL-60(TB) leukemia
SK-MEL-28 melanoma = test system: SK-MEL-28 melanoma
MDA-MB-435 = test system: MDA-MB-435
SF-268 CNS = test system: SF-268 CNS
MDA-MB-231 breast = test system: MDA-MB-231 breast
RPMI-8226 leukemia = test system: RPMI-8226 leukemia
NCI-H226 lung = test system: NCI-H226 lung

Measured: TGI

Cc1ccc(-c2n[nH]c(CC#N)n2)cc1
not listed: MDA-MB-231 breast | RPMI-8226 leukemia | NCI-H226 lung
> 100 µM: all other assays above

CCCCCCCCCCCCCCCCCCNc1ccn(C2OC(COP(=O)(O)OCCCCCCCCCCCCCCCC)C(O)C2O)c(=O)n1 (centres undefined)
not listed: NCI-H460 lung | SK-MEL-5 melanoma | BT-549 breast | MALME-3M melanoma
> 100 µM: all other assays above
